In brackets after ≈: the same amount, converted by molar mass. Where two headings read alike, the source gives them in different places. Blank lines part the entries; values can stand above or below the compound they belong to.
Key:
[1] = tested on: vancomycin‐resistant E. faecium clinical isolates with reduced susceptibility to daptomycin (n = 26); assay: microbe, parasite or virus in culture; conditions: Enterococcus faecium; for MIC: 24 h; for MIC50 / MIC90: VRE
E. faecalis ATCC 29212 [2] = assay: microbe, parasite or virus in culture; conditions: Enterococcus faecalis, ATCC29212, 24 h, read-out: MIC, E. faecalis ATCC29212
[3] = tested on: vancomycin‐resistant E. faecium clinical isolates with reduced susceptibility to daptomycin (n = 26); conditions: broth microdilution, MHB II, daptomycin with 50 µg/mL Ca2+, mean of two independent experiments
E. faecalis ATCC 29212 [4] = conditions: reference strain in Table S5; broth microdilution, MHB II, 37 °C, 24 h; daptomycin with 50 µg/mL Ca2+; mean of two independent experiments
[5] = read-out: MIC, Enterococcus faecium isolate 1
[6] = read-out: MIC, Enterococcus faecium isolate 2
[7] = read-out: MIC, Enterococcus faecium isolate 3
[8] = read-out: MIC, Enterococcus faecium isolate 4
[9] = read-out: MIC, Enterococcus faecium isolate 5
[10] = read-out: MIC, Enterococcus faecium isolate 6
[11] = read-out: MIC, Enterococcus faecium isolate 7
[12] = read-out: MIC, Enterococcus faecium isolate 8
[13] = read-out: MIC, Enterococcus faecium isolate 9
[14] = read-out: MIC, Enterococcus faecium isolate 10
[15] = read-out: MIC, Enterococcus faecium isolate 11
[16] = read-out: MIC, Enterococcus faecium isolate 12
[17] = read-out: MIC, Enterococcus faecium isolate 13
[18] = read-out: MIC, Enterococcus faecium isolate 14
[19] = read-out: MIC, Enterococcus faecium isolate 15
[20] = read-out: MIC, Enterococcus faecium isolate 16
[21] = read-out: MIC, Enterococcus faecium isolate 17
[22] = read-out: MIC, Enterococcus faecium isolate 18
[23] = read-out: MIC, Enterococcus faecium isolate 19
[24] = read-out: MIC, Enterococcus faecium isolate 20
[25] = read-out: MIC, Enterococcus faecium isolate 21
[26] = read-out: MIC, Enterococcus faecium isolate 22
[27] = read-out: MIC, Enterococcus faecium isolate 23
[28] = read-out: MIC, Enterococcus faecium isolate 24
[29] = read-out: MIC, Enterococcus faecium isolate 25
[30] = read-out: MIC, Enterococcus faecium isolate 26
[31] = 26 VRE E. faecium clinical isolates

Compound: CNC(C)C1CCC(N)C(OC2C(N)CC(N)C(OC3OCC(C)(O)C(NC)C3O)C2O)O1 (stereo not drawn) [Gentamicin]
MIC [1, 5]: > 64 µg/mL
MIC [1, 6]: > 64 µg/mL
MIC [1, 7]: 64 µg/mL (≈ 134 µM)
MIC [1, 8]: > 64 µg/mL
MIC [1, 9]: > 64 µg/mL
MIC [1, 10]: > 64 µg/mL
MIC [1, 11]: > 64 µg/mL
MIC [1, 12]: > 64 µg/mL
MIC [1, 13]: > 64 µg/mL
MIC [1, 14]: > 64 µg/mL
MIC [1, 15]: > 64 µg/mL
MIC [1, 16]: > 64 µg/mL
MIC [1, 17]: > 64 µg/mL
MIC [1, 18]: > 64 µg/mL
MIC [1, 19]: > 64 µg/mL
MIC [1, 20]: > 64 µg/mL
MIC [1, 21]: > 64 µg/mL
MIC [1, 22]: > 64 µg/mL
MIC [1, 23]: > 64 µg/mL
MIC [1, 24]: > 64 µg/mL
MIC [1, 25]: > 64 µg/mL
MIC [1, 26]: > 64 µg/mL
MIC [1, 27]: > 64 µg/mL
MIC [1, 28]: > 64 µg/mL
MIC [1, 29]: > 64 µg/mL
MIC [1, 30]: > 64 µg/mL
MIC50 [1]: > 64 µg/mL
MIC90 [1]: > 64 µg/mL
MIC (E. faecalis ATCC 29212 [2]): 8 µg/mL (≈ 16.8 µM)

Compound: CC(=O)NC[C@H]1CN(c2ccc(N3CCOCC3)c(F)c2)C(=O)O1 [Linezolid]
MIC [1, 5]: 2 µg/mL (≈ 5.93 µM)
MIC [1, 6]: 2 µg/mL (≈ 5.93 µM)
MIC [1, 7]: 4 µg/mL (≈ 11.9 µM)
MIC [1, 8]: 2 µg/mL (≈ 5.93 µM)
MIC [1, 9]: 4 µg/mL (≈ 11.9 µM)
MIC [1, 10]: 4 µg/mL (≈ 11.9 µM)
MIC [1, 11]: 2 µg/mL (≈ 5.93 µM)
MIC [1, 12]: 2 µg/mL (≈ 5.93 µM)
MIC [1, 13]: 2 µg/mL (≈ 5.93 µM)
MIC [1, 14]: 2 µg/mL (≈ 5.93 µM)
MIC [1, 15]: 2 µg/mL (≈ 5.93 µM)
MIC [1, 16]: 4 µg/mL (≈ 11.9 µM)
MIC [1, 17]: 4 µg/mL (≈ 11.9 µM)
MIC [1, 18]: 4 µg/mL (≈ 11.9 µM)
MIC [1, 19]: 4 µg/mL (≈ 11.9 µM)
MIC [1, 20]: 4 µg/mL (≈ 11.9 µM)
MIC [1, 21]: 2 µg/mL (≈ 5.93 µM)
MIC [1, 22]: 4 µg/mL (≈ 11.9 µM)
MIC [1, 23]: 4 µg/mL (≈ 11.9 µM)
MIC [1, 24]: 2 µg/mL (≈ 5.93 µM)
MIC [1, 25]: 2 µg/mL (≈ 5.93 µM)
MIC [1, 26]: 4 µg/mL (≈ 11.9 µM)
MIC [1, 27]: 4 µg/mL (≈ 11.9 µM)
MIC [1, 28]: 4 µg/mL (≈ 11.9 µM)
MIC [1, 29]: 4 µg/mL (≈ 11.9 µM)
MIC [1, 30]: 2 µg/mL (≈ 5.93 µM)
MIC50 [1]: 4 µg/mL (≈ 11.9 µM)
MIC90 [1]: 4 µg/mL (≈ 11.9 µM)
MIC (E. faecalis ATCC 29212 [2]): 2 µg/mL (≈ 5.93 µM)
MIC Range [3, 31]: 2 to 4 µg/mL

MIC, E. faecalis ATCC29212 (E. faecalis ATCC 29212 [4]): 0.5 µg/mL
MIC50 [3, 31]: 64 µg/mL
MIC, Enterococcus faecium isolate 1 ([3]; clinical isolate 1, 37 °C, 24 h): 64 µg/mL
MIC, Enterococcus faecium isolate 2 ([3]; clinical isolate 2, 37 °C, 24 h): 32 µg/mL
MIC, Enterococcus faecium isolate 3 ([3]; clinical isolate 3, 37 °C, 24 h): 2 µg/mL
MIC, Enterococcus faecium isolate 4 ([3]; clinical isolate 4, 37 °C, 24 h): 2 µg/mL
MIC, Enterococcus faecium isolate 5 ([3]; clinical isolate 5, 37 °C, 24 h): > 64 µg/mL
MIC, Enterococcus faecium isolate 6 ([3]; clinical isolate 6, 37 °C, 24 h): 64 µg/mL
MIC, Enterococcus faecium isolate 7 ([3]; clinical isolate 7, 37 °C, 24 h): 32 µg/mL
MIC, Enterococcus faecium isolate 8 ([3]; clinical isolate 8, 37 °C, 24 h): 64 µg/mL
MIC, Enterococcus faecium isolate 9 ([3]; clinical isolate 9, 37 °C, 24 h): > 64 µg/mL
MIC, Enterococcus faecium isolate 10 ([3]; clinical isolate 10, 37 °C, 24 h): > 64 µg/mL
MIC, Enterococcus faecium isolate 11 ([3]; clinical isolate 11, 37 °C, 24 h): 32 µg/mL
MIC, Enterococcus faecium isolate 12 ([3]; clinical isolate 12, 37 °C, 24 h): 64 µg/mL
MIC, Enterococcus faecium isolate 13 ([3]; clinical isolate 13, 37 °C, 24 h): 32 µg/mL
MIC, Enterococcus faecium isolate 14 ([3]; clinical isolate 14, 37 °C, 24 h): 32 µg/mL
MIC, Enterococcus faecium isolate 15 ([3]; clinical isolate 15, 37 °C, 24 h): 64 µg/mL
MIC, Enterococcus faecium isolate 16 ([3]; clinical isolate 16, 37 °C, 24 h): 32 µg/mL
MIC, Enterococcus faecium isolate 17 ([3]; clinical isolate 17, 37 °C, 24 h): 64 µg/mL
MIC, Enterococcus faecium isolate 18 ([3]; clinical isolate 18, 37 °C, 24 h): 32 µg/mL
MIC, Enterococcus faecium isolate 19 ([3]; clinical isolate 19, 37 °C, 24 h): 64 µg/mL
MIC, Enterococcus faecium isolate 20 ([3]; clinical isolate 20, 37 °C, 24 h): 64 µg/mL
MIC, Enterococcus faecium isolate 21 ([3]; clinical isolate 21, 37 °C, 24 h): > 64 µg/mL
MIC, Enterococcus faecium isolate 22 ([3]; clinical isolate 22, 37 °C, 24 h): 64 µg/mL
MIC, Enterococcus faecium isolate 23 ([3]; clinical isolate 23, 37 °C, 24 h): > 64 µg/mL
MIC, Enterococcus faecium isolate 24 ([3]; clinical isolate 24, 37 °C, 24 h): > 64 µg/mL
MIC, Enterococcus faecium isolate 25 ([3]; clinical isolate 25, 37 °C, 24 h): > 64 µg/mL
MIC, Enterococcus faecium isolate 26 ([3]; clinical isolate 26, 37 °C, 24 h): > 64 µg/mL
Compound: teicoplanin

From publication PMC12171682, “Saarvienin A—A Novel Glycopeptide with Potent Activity against Drug‐Resistant Bacteria” (Angewandte Chemie (International Ed. in English), 2025)
